The values below come from publication PMC11054132, “Neuroprotective Effects of Chemical Constituents of Leaves of Euonymus hamiltonianus Wall” (Plants, 2024).

SMILES strings stand for the structures. Entries after “also recorded” stand apart in the source; their conditions may differ. Like-named read-outs stand apart in the source and are kept apart here.

In general, IC50 refers to the concentration that gives 50% inhibition.

The nature of data set [1]: Cytotoxicity (MTT assay) in BV-2 microglial cells. It is filed as cell-based. To be noted: mouse. For orientation: Tetrazolium dyes change colour on reduction, which living cells bring about.
Data set [2] deals with NO production in LPS-activated BV-2 microglial cells. In words: NO production (Griess reaction) in LPS-stimulated BV-2 microglial cells. The class given is cell-based, mouse. Particulars: for IC50: Mus musculus, BV-2, BV-2 microglial cells, pretreated 1 h, 100 ng/mL LPS (footnote 24 h; text 12 h), means ± SDs (n = 3). As to the method: The anti-inflammatory effects of the fourteen compounds (1–14) isolated from E. hamiltonianus were evaluated in activated BV-2 microglial cells by the production of NO and proinflammatory cytokines. […] […] The compounds were continuously assessed to determine whether they suppressed the expression of iNOS and COX-2 in LPS-stimulated BV-2 microglial cells. The cells were stimulated with LPS in the presence of these compounds at various concentrations, and the expression levels of iNOS and COX-2 were determined by Western blotting. […] Thus, compound 3 may be considered a potential anti-inflammatory agent.
For the Aβ-Hela-APPsw model, Hela cells were stably transfected with an APP carrying the Swedish mutation (APPsw) using BioT (Bioland Scientific LLC, Paramount, CA, USA) according to the manufacturer’s instructions, which was provided by Prof. Tae-Wan Kim (Department of Pathology, Columbia University of Medical Center, New York, NY 10032, USA). APPsw-transfected HeLa cells were grown in DMEM supplemented with 10% fetal bovine serum (FBS; Thermo Fisher Scientific, Lafayette, CA, USA), 1% penicillin/streptomycin (Thermo Fisher Scientific, Lafayette, CA, USA), 260 μg/mL Zeocin, and 400 μg/mL G418. The cells were maintained at 37 °C under a humidified atmosphere of 5% CO2. The stock sample solution was dissolved in DMSO and kept at −20 °C and diluted to the final concentration in fresh medium before each experiment. […] The EZ-Cytox kit (DAEILLAB, Cheongwon, Republic of Korea) was applied to detect the cell viability, following the manufacturer’s instructions, and measurements were taken by a microplate reader (BIO-TEK® Dower-Wave; BioTek, Winooski, VT, USA) under absorbance at 450 nm. The results were presented as the percentage of MTT reduction, compared with the control group as 100%. For the LPS-induced microglia model, the BV-2 mouse microglia cell line was provided by Prof. Lee Sung Jung’s research team in the College of Medicine, Seoul National University, and was cultured in DMEM-F12 with 5% FBS and 1% penicillin/streptomycin at 37 °C under a humidified atmosphere containing 5% CO2. And the cell viability assay was performed using the Aβ-Hela-APPsw model.
[…] The media were collected and centrifuged at 13,000 rpm for the removal of dead cells. The supernatants were collected and mixed with an equal volume (50 μL) of Griess reagents (1% sulfanilamide and N-(1-naphthyl) ethylenediamine dihydrochloride in 2.5% H3PO4) for 5 min at room temperature, and the Nitric Oxide concentration was measured at 540 nm using a microplate reader and compared with the sodium nitrite standard curve.
On the technique in general: Nitrite, measured by Griess reagent, commonly stands in for NO production.

A short description of data set [3]: Storage stability of isolated compound by LC-MS. It is filed as physicochemical. Particulars: stored 27 days (compound 2) or a significant length of time (compound 1), dried powder and DMSO solution. As to the method: In this study, qualitative profile analysis was performed on the 30% EtOH crude extract of the leaves of E. hamiltonianus using HPLC. The isolated phytochemicals, 1–14, were used as standards and compared to the crude extract profile represented by a high-performance liquid chromatogram (Figure 3). […] With comparative UV area normalization, compound 2 was confirmed as a pure compound initially when isolated (Figure S3.8). […] For reconfirmation, LC-MS analyses of both the dried powdered form of the compound when isolated and the compound in DMSO solution were performed (Figure S3.9), both sets of results showing signs of degradation. Compound 2 was degraded into three separate peaks, and the original compound 2 indicated by m/z 759.2 was verified by LC-MS analysis, and the peaks of 2a and 2b were indicated by m/z 465.1 and 627, respectively. […] Due to the close resemblance of compound 2 to compound 1, it was investigated in the same manner after a significant length of time.

The subject of data set [4] is Aβ42 production in APPsw-transfected HeLa cells. Nature of the data set: Aβ42 production (ELISA kit) in APPsw-transfected HeLa cells. The class given is cell-based. To be noted: for IC50: 8 h, APPsw-transfected HeLa cells, means ± SDs (n = 3). As to the method: APPsw-transfected HeLa cells were cultured with the isolated compounds or DMSO in Dulbecco’s modified Eagle medium (DMEM, Welgene, Gyeongsan-si, Republic of Korea) for 8 h, and then the cell culture supernatants were collected for the following analyses. For the detection of Aβ secretion, kits for Aβ42 (KHB3442) and Aβ40 (KHB3482) were purchased from the Invitrogen Company and used according to the supplier’s instructions.
For the Aβ-Hela-APPsw model, Hela cells were stably transfected with an APP carrying the Swedish mutation (APPsw) using BioT (Bioland Scientific LLC, Paramount, CA, USA) according to the manufacturer’s instructions, which was provided by Prof. Tae-Wan Kim (Department of Pathology, Columbia University of Medical Center, New York, NY 10032, USA). APPsw-transfected HeLa cells were grown in DMEM supplemented with 10% fetal bovine serum (FBS; Thermo Fisher Scientific, Lafayette, CA, USA), 1% penicillin/streptomycin (Thermo Fisher Scientific, Lafayette, CA, USA), 260 μg/mL Zeocin, and 400 μg/mL G418. The cells were maintained at 37 °C under a humidified atmosphere of 5% CO2. The stock sample solution was dissolved in DMSO and kept at −20 °C and diluted to the final concentration in fresh medium before each experiment. For the cell viability assay, Hela cells were cultured in 96-well plates for 24 h and then various concentrations of comp 27 (0–10 μM) were treated for 12 h. The EZ-Cytox kit (DAEILLAB, Cheongwon, Republic of Korea) was applied to detect the cell viability, following the manufacturer’s instructions, and measurements were taken by a microplate reader (BIO-TEK® Dower-Wave; BioTek, Winooski, VT, USA) under absorbance at 450 nm. The results were presented as the percentage of MTT reduction, compared with the control group as 100%. For the LPS-induced microglia model, the BV-2 mouse microglia cell line was provided by Prof. Lee Sung Jung’s research team in the College of Medicine, Seoul National University, and was cultured in DMEM-F12 with 5% FBS and 1% penicillin/streptomycin at 37 °C under a humidified atmosphere containing 5% CO2. And the cell viability assay was performed using the Aβ-Hela-APPsw model.

In another data set the test system is iNOS. In words: Western blot of LPS-induced iNOS expression in BV-2 microglial cells. The class given is cell-based, mouse. Particulars: LPS-stimulated BV-2 microglial cells, various concentrations (1.0, 2.0, 4.0 µM). As to the method:
The anti-inflammatory effects of the fourteen compounds (1–14) isolated from E. hamiltonianus were evaluated in activated BV-2 microglial cells by the production of NO and proinflammatory cytokines. BV-2 microglial cells were stimulated with 0.1 µg/mL LPS for 12 h in the presence of the compounds at various concentrations, and the levels of NO in the culture supernatants were measured using Griess reactions. […] The compounds were continuously assessed to determine whether they suppressed the expression of iNOS and COX-2 in LPS-stimulated BV-2 microglial cells. The cells were stimulated with LPS in the presence of these compounds at various concentrations, and the expression levels of iNOS and COX-2 were determined by Western blotting. […] Thus, compound 3 may be considered a potential anti-inflammatory agent.
The total protein samples (10 μg) were loaded in sodium dodecyl sulfate polyacrylamide gel electrophoresis (SDS–PAGE) gels with 10% acrylamide/bis and transferred to polyvinylidene difluoride membranes (Millipore, Burlington, MA, USA). Then, the membranes were blocked with 5% silky milk dissolved in TBST (Tris Buffered saline Tween) for 1 h under room temperature and incubated overnight at 4 °C with specific primary antibodies (1:1000). After being washed with TBST, the membranes were incubated with secondary HRP-conjugated IgG (1:2000) at room temperature for 1 h and visualized using enhanced chemiluminescence (ECL) reagents (Thermo Fisher Scientific, Lafayette, CA, USA). Densitometry analysis of the bands was performed with the fusion solo system (Vilber, Paris, France). The band densities were determined as the intensities of protein by TotalLab TL120 software v2009 (TotalLab, Newcastle, UK).
On the technique in general: A western blot detects proteins with antibodies after separation by electrophoresis.

Setting [5] is: BV-2 microglial cells, MTT assay, read-out: IC50 Value (µM) Cytotoxicity.

Turning to `COc1cc(-c2oc3cc(O[C@@H]4O[C@H](CO)[C@@H](O)[C@H](O)[C@H]4O)cc(O)c3c(=O)c2O[C@@H]2O[C@H](CO)[C@@H](O)[C@H](O)[C@H]2O[C@@H]2OC[C@@H](O)[C@H](O)[C@H]2O)ccc1O` [Compound 1, isorhamnet-in-3-O-(2″-O-(β-D-xylopyranosyl)-β-D-glucopyranoside)-7-O-β-D-glucopyranoside], in data set [1] (setting [5]), the half-inhibitory concentration (IC50) at 12 h was greater than 100 µM. Further, the IC50 in data set [2] was greater than 100 µM. For the same compound, the “Degradation on storage (in words)” value in data set [3] is “did not show any sign of degradation”.

For `COc1cc(-c2oc3cc(O[C@@H]4O[C@H](CO)[C@@H](O)[C@H](O)[C@H]4O)cc(O)c3c(=O)c2O[C@@H]2O[C@H](CO)[C@@H](O)[C@H](O)[C@H]2O)ccc1O` [Compound 5, isorhamnetin-3,7-di-O-β-D-glucopyranoside], the IC50 at 12 h in data set [1] (setting [5]) is greater than 100 µM. Besides, in data set [2], the half-maximal inhibitory concentration (IC50) was greater than 100 µM.

Consider `O=c1c(O[C@@H]2O[C@H](CO)[C@@H](O)[C@H](O)[C@H]2O[C@@H]2OC[C@@H](O)[C@H](O)[C@H]2O)c(-c2ccc(O)c(O)c2)oc2cc(O)cc(O)c12` [Compound 6, quercetin-3-O-sambubioside], for which the IC50 at 12 h in data set [1] (setting [5]) is greater than 100 µM. Further, the IC50 in data set [4] (Homo sapiens, HeLa) is greater than 100 µM; in data set [2] it was greater than 100 µM.

With `O=c1c(O[C@@H]2O[C@H](CO)[C@@H](O)[C@H](O)[C@H]2O)c(-c2ccc(O)c(O)c2)oc2cc(O)cc(O)c12` [Compound 7, isoquercetin], the IC50 at 12 h in data set [1] (setting [5]) was greater than 100 µM. The IC50 in data set [2] is greater than 100 µM.

In the case of `O=c1c(O[C@@H]2O[C@H](CO)[C@@H](O)[C@H](O)[C@H]2O)c(-c2ccc(O)c(O[C@@H]3O[C@H](CO)[C@@H](O)[C@H](O)[C@H]3O)c2)oc2cc(O)cc(O)c12` [Compound 8, quercetin-3,3′-di-O-β-D-glucopyranoside], the half-inhibitory concentration (IC50) at 12 h in data set [1] (setting [5]) was greater than 100 µM. In addition, in data set [2], the 50% inhibitory concentration (IC50) was greater than 100 µM.

As to `COc1cc([C@H]2OC[C@H]3[C@@H]2CO[C@@H]3c2cc(OC)c(O[C@@H]3O[C@H](CO)[C@@H](O)[C@H](O)[C@H]3O)c(OC)c2)cc(OC)c1O[C@@H]1O[C@H](CO)[C@@H](O)[C@H](O)[C@H]1O` [Compound 9, liriodendrin], the IC50 at 12 h in data set [1] was greater than 100 µM.

On to `CCCCOC(=O)C(CC(=O)O)OC(=O)C=Cc1ccc(O)cc1` (stereo not drawn) [Compound 10, p-coumaroylmalic acid 1-butyl ester], for which, in data set [1] (setting [5]), the half-inhibitory concentration (IC50) at 12 h is greater than 100 µM. Further, the IC50 in data set [2] was greater than 100 µM.

For the compound `O=c1occc2c(O)cc(O)cc12` [Compound 11, 5,7-dihydroxyisocoumarin], in data set [1] (setting [5]), the half-maximal inhibitory concentration (IC50) at 12 h is greater than 100 µM. Further, the concentration for half-maximal inhibition (IC50) in data set [2] is greater than 100 µM.

With `O=C(O)/C=C/c1ccc(O)c(O[C@@H]2O[C@H](CO)[C@@H](O)[C@H](O)[C@H]2O)c1` [Compound 12, caffeic acid trans-3-O-β-D-glucopyranoside], in data set [1] (setting [5]), the IC50 at 12 h was greater than 100 µM. Also, the half-inhibitory concentration (IC50) in data set [4] (Homo sapiens, HeLa) is greater than 100 µM; in data set [2], greater than 100 µM.

For `COC(=O)/C=C/c1ccc(O)c(O[C@@H]2O[C@H](CO)[C@@H](O)[C@H](O)[C@H]2O)c1` [Compound 13, methyl trans-3-O-(β-D-glucopyranosyl) caffeate], the half-inhibitory concentration (IC50) at 12 h in data set [1] (setting [5]) is greater than 100 µM. The IC50 in data set [4] was 65.4 ± 6.71 µM; in data set [4] (Homo sapiens, HeLa), 53.1 to 65.4 µM; in data set [2], greater than 100 µM. In addition, the “Inhibitory effect on Aβ production (in words)” value in data set [4] (Hela-swAPP cells) is recorded as “reduced Aβ levels”.

Regarding `OC[C@H]1O[C@@H](OC[C@H]2O[C@@H](OCc3ccccc3)[C@H](O)[C@@H](O)[C@@H]2O)[C@H](O)[C@@H](O)[C@@H]1O` [Compound 14, benzyl gentiobioside], the half-maximal inhibitory concentration (IC50) at 12 h in data set [1] (setting [5]) was greater than 100 µM. Besides, the half-inhibitory concentration (IC50) in data set [4] (Homo sapiens, HeLa) is 53.1 to 65.4 µM; in data set [2], 17.4 ± 2.77 µM. In addition, in the data set with iNOS, the “LPS-induced iNOS protein expression (in words)” value is given as “suppressed; also recorded: effectively downregulated”. In data set [2] (LPS-stimulated BV-2 microglial cells), the “Inhibitory effect on NO production (in words)” value is “effectively downregulated; also recorded: good inhibitory effects”.

Consider `C[C@@H]1C[C@H]2[C@@H]3CCC4=CC(=O)C=C[C@]4(C)[C@@]3(F)[C@@H](O)C[C@]2(C)[C@@]1(O)C(=O)CO` [Dexamethasone, reference compound], for which the IC50 at 12 h in data set [1] (setting [5]) is greater than 100 µM. For the same compound, in data set [2], the half-inhibitory concentration (IC50) was 1.24 ± 0.104 µM.

On to `COc1cc2c(OC)c3c(c(-c4ccc5c(c4)OCO5)c2cc1OC)C(=O)OC3` [Justicidine A, reference compound], for which inhibition in data set [4] was half-maximal at 1 ± 0.043 µM (IC50).
